According to ChEMBL document CHEMBL2417430, “A synthetic approach to novel carvotacetone and antheminone analogues with anti-tumour activity” (Bioorg Med Chem Lett, 2013):
pIC50: −log10 of the molar value.

These compounds were tested on MCF-10A (assay: Cytotoxicity against human MCF10A cells after 4 days by MTT assay). Conditions: 96 h.
Type: cell-based

In the case of `C/C=C/C(=O)OCC1=C[C@H](O)[C@@H](c2ccccc2)CC1=O`, the pIC50 was 5.74.

The compounds below were run on A549 (assay: Cytotoxicity against human A549 cells after 4 days by MTT assay). Conditions: A549, 96 h.
Type: functional, cell-based

In order of falling pIC50:
1. C/C=C/C(=O)OCC1=C[C@H](O)[C@@H](c2ccccc2)CC1=O  5.89
2. C/C=C/C(=O)OCC1=C[C@H](O)[C@H](c2ccccc2)CC1=O  5.10
3. C/C=C/C(=O)OCC1=C[C@H](O)[C@@H](C(C)C)CC1=O  4.85
4. C/C=C/C(=O)OCC1=C[C@@H](O)CCC1=O  4.78
5. C/C=C/C(=O)OCC1=C[C@H](O)[C@@H]2C[C@@H]2C1=O  4.74
6. CC(C)[C@H]1CC(=O)C(CO)=C[C@@H]1O  3.80
